Measurements reported in US20040202728A1, “Method for the destruction of oocysts” (priority 2001, published 2004).

System: Cryptosporidium oocysts
Test: Microelectrophoresis of oocysts in the presence of water treatment coagulants
Method: The zeta potentials of Cryptosporidium oocysts in the presence 5 mg/L ferric chloride were studied over a pH range 3-10.
As with the ferric flocs, it was possible to differentiate between the alum flocs and the oocyst in solution because of their different size, shape and scattering ability. The zeta potentials of Cryptosporidium oocysts in the presence of 6.8 mg/L alum were studied over a pH range 4-8.

## O=S(=O)([O-])[O-].O=S(=O)([O-])[O-].O=S(=O)([O-])[O-].[Al+3].[Al+3] [alum]
6.8 mg/L, pH range 4-8
  adsorption of coagulant species to oocysts (from zeta potentials): chemisorbed to the oocyst surface

## [Cl][Fe]([Cl])[Cl] [ferric chloride]
5 mg/L, pH range 3-10
  adsorption of coagulant species to oocysts (from zeta potentials): no adsorption
